Legend:
[1] = biological target: T1, STAT6 (Homo sapiens, UniProt P42226); test: STAT6 Reporter Luciferase Assay (IL-13 stimulated HaCaT keratinocyte NanoLuc reporter cells); type: cell-based; details: IL-13 stimulated HaCaT STAT6 NanoLuc reporter cells; read-out: Reporter EC50
T1 construct: stably transfected HaCaT keratinocyte cell line, which expresses NanoLuc luciferase reporter gene under the transcriptional control of the STAT6 responsive promoter; endogenous in cells; host or cells: HaCaT keratinocyte reporter cell line (stably transfected with a NanoLuc reporter)
T1 sequence (P42226 1-847): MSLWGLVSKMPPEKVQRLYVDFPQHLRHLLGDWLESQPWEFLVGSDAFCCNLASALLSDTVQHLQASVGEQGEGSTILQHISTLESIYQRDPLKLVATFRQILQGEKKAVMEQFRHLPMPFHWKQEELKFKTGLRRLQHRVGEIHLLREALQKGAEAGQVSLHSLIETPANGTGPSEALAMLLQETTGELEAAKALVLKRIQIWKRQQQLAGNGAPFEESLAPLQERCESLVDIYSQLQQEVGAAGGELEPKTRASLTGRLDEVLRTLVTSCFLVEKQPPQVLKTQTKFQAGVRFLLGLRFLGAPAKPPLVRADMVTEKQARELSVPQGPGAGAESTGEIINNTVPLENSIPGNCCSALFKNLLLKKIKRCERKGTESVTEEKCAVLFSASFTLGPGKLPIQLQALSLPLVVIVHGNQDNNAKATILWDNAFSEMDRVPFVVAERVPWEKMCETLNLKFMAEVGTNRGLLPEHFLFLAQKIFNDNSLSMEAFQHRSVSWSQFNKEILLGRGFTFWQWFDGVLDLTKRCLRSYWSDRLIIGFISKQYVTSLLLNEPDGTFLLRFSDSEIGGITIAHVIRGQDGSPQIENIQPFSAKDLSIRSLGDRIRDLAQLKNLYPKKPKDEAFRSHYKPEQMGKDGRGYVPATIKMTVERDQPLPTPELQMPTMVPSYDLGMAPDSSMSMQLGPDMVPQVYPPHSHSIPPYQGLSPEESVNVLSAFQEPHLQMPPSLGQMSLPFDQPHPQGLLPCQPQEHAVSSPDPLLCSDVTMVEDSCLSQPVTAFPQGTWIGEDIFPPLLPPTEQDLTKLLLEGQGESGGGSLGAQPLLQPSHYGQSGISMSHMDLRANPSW
In short: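 HaCaT cells stably carrying a NanoLuc reporter driven by the STAT6-responsive IL-13Ra2 promoter were preincubated with compounds for 2 h at 37 °C in 2% FBS medium. Cells were then stimulated with 0.12 nM IL-13 for 4 h, and luminescence was read after Nano-Glo substrate. Compounds ran as 11-point 4-fold dilutions in duplicate.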

[2] = test system: CCL17 secretion in peripheral human whole blood; test: Human Whole Blood (HWB) CCL17 TR-FRET Assay (IL-13 stimulated CCL17 secretion); type: cell-based; details: Homo sapiens, 48 h, human whole blood, IL-13 stimulated
In short: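 IC50 comes from serum CCL17 measured by a TR-FRET sandwich assay (16 h at room temperature, 665/615 nm ratio). Beforehand, blood in sodium heparin was exposed to an 11-point, 3-fold compound series for 2 h at 37°C and then to 10 ng/mL IL-13 for 48 h.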

| EC50 [1] [nM] | IC50 [2] [nM] | Structure (SMILES) |
| --- | --- | --- |
| 3110 | > 30000 | CC(C)n1nc(C(=O)NCc2ccc(NC(=O)N(C)C)cc2)c2c1CCN(c1ccc(C3COC3)cn1)C2 [Example 338, N-(4-(3,3-Dimethylureido)benzyl)-1-isopropyl-5-(5-(oxetan-3-yl)pyridin-2-yl)-4,5,6,7-tetrahydro-1H-pyrazolo[4,3-c]pyridine-3-carboxamide] |
| 276 | 2340 | CC(C)n1nc(C(=O)NCc2ccc(NC(=O)N(C)C)cc2)c2c1[C@@H](C)CN(c1ncc(-c3nccn3C)cn1)C2 [Example 340, (S)-N-(4-(3,3-dimethylureido)benzyl)-1-isopropyl-7-methyl-5-(5-(1-methyl-1H-imidazol-2-yl)pyrimidin-2-yl)-4,5,6,7-tetrahydro-1H-pyrazolo[4,3-c]pyridine-3-carboxamide] |
| 4 | 28 | CNC(=O)c1ccc(CNC(=O)c2nn(C(C)C)c3c2CN(c2ccc(C(=O)N(C)C)cn2)C[C@@H]3C)cc1 [Example 341, (S)-5-(5-(dimethylcarbamoyl)pyridin-2-yl)-1-isopropyl-7-methyl-N-(4-(methylcarbamoyl)benzyl)-4,5,6,7-tetrahydro-1H-pyrazolo[4,3-c]pyridine-3-carboxamide] |
| 3 | 15 | CC(C)n1nc(C(=O)NCc2ccc(C(N)=O)cc2)c2c1[C@@H](C)CN(c1ccc(C(=O)N(C)C)cn1)C2 [Example 342, (S)-N-(4-carbamoylbenzyl)-5-(5-(dimethylcarbamoyl)pyridin-2-yl)-1-isopropyl-7-methyl-4,5,6,7-tetrahydro-1H-pyrazolo[4,3-c]pyridine-3-carboxamide] |
| 1 | 9 | CC(C)n1nc(C(=O)NCc2ccc(-c3ncc[nH]3)cc2)c2c1[C@@H](C)CN(c1ccc(C(=O)N(C)C)cn1)C2 [Example 343, (S)-N-(4-(1H-imidazol-2-yl)benzyl)-5-(5-(dimethylcarbamoyl)pyridin-2-yl)-1-isopropyl-7-methyl-4,5,6,7-tetrahydro-1H-pyrazolo[4,3-c]pyridine-3-carboxamide] |
| 2 | 13 | CC(C)n1nc(C(=O)NCc2ccc(NC(=O)N(C)C)cc2)c2c1[C@@H](C)CN(c1ncc(C(=O)N3Cc4cccnc4C3)cn1)C2 [Example 346, (S)-5-(5-(6,7-dihydro-5H-pyrrolo[3,4-b]pyridine-6-carbonyl)pyrimidin-2-yl)-N-(4-(3,3-dimethylureido)benzyl)-1-isopropyl-7-methyl-4,5,6,7-tetrahydro-1H-pyrazolo[4,3-c]pyridine-3-carboxamide] |
| 2 | 11 | CC(C)n1nc(C(=O)NCc2ccc(NC(=O)N(C)C)nc2)c2c1[C@@H](C)CN(c1ccc(C(=O)N(C)C)cn1)C2 [Example 349, (S)-5-(5-(dimethylcarbamoyl)pyridin-2-yl)-N-((6-(3,3-dimethylureido)pyridin-3-yl)methyl)-1-isopropyl-7-methyl-4,5,6,7-tetrahydro-1H-pyrazolo[4,3-c]pyridine-3-carboxamide] |
| 2 | 6 | CC(C)n1nc(C(=O)NCc2ccc(NC(=O)N(C)C)cn2)c2c1[C@@H](C)CN(c1ccc(C(=O)N(C)C)cn1)C2 [Example 350, (S)-5-(5-(dimethylcarbamoyl)pyridin-2-yl)-N-((5-(3,3-dimethylureido)pyridin-2-yl)methyl)-1-isopropyl-7-methyl-4,5,6,7-tetrahydro-1H-pyrazolo[4,3-c]pyridine-3-carboxamide] |
| 15 | 1960 | COc1nccc2c1CN(C(=O)c1ccc(N3CCc4c(c(C(=O)NCc5ccc(NC(=O)N(C)C)cc5)nn4C(C)C)C3)nc1)CC2 [Example 375, N-(4-(3,3-dimethylureido)benzyl)-1-isopropyl-5-(5-(8-methoxy-1,2,3,4-tetrahydro-2,7-naphthyridine-2-carbonyl)pyridin-2-yl)-4,5,6,7-tetrahydro-1H-pyrazolo[4,3-c]pyridine-3-carboxamide] |
| 15 | 1070 | COc1ccc2c(n1)CCN(C(=O)c1ccc(N3CCc4c(c(C(=O)NCc5ccc(NC(=O)N(C)C)cc5)nn4C(C)C)C3)nc1)C2 [Example 384, N-(4-(3,3-dimethylureido)benzyl)-1-isopropyl-5-(5-(2-methoxy-5,6,7,8-tetrahydro-1,6-naphthyridine-6-carbonyl)pyridin-2-yl)-4,5,6,7-tetrahydro-1H-pyrazolo[4,3-c]pyridine-3-carboxamide] |
| 8 | 29 | CCn1nc(C(=O)NCc2ccc(C(=O)NC)cc2)c2c1[C@@H](C)CN(c1ccc(N3CCCC3=O)cn1)C2 [Example 388, (S)-1-ethyl-7-methyl-N-(4-(methylcarbamoyl)benzyl)-5-(5-(2-oxopyrrolidin-1-yl)pyridin-2-yl)-4,5,6,7-tetrahydro-1H-pyrazolo[4,3-c]pyridine-3-carboxamide] |
| 6 | 17 | CCn1nc(C(=O)NCc2ccc(C(N)=O)cc2)c2c1[C@@H](C)CN(c1ccc(N3CCCC3=O)cn1)C2 [Example 389, (S)-N-(4-carbamoylbenzyl)-1-ethyl-7-methyl-5-(5-(2-oxopyrrolidin-1-yl)pyridin-2-yl)-4,5,6,7-tetrahydro-1H-pyrazolo[4,3-c]pyridine-3-carboxamide] |
| 1 | 6 | CC(C)n1nc(C(=O)NCc2ccc(C(N)=O)cc2)c2c1[C@@H](C)CN(c1ccc(C(=O)N3Cc4cccnc4C3)cn1)C2 [Example 395, (S)—N-(4-Carbamoylbenzyl)-5-(5-(6,7-dihydro-5H-pyrrolo[3,4-b]pyridine-6-carbonyl)pyridin-2-yl)-1-isopropyl-7-methyl-4,5,6,7-tetrahydro-1H-pyrazolo[4,3-c]pyridine-3-carboxamide] |
| 1 | 15 | CNC(=O)c1ccc(CNC(=O)c2nn(C(C)C)c3c2CN(c2ccc(C(=O)N4Cc5cccnc5C4)cn2)C[C@@H]3C)cc1 [Example 396, (S)-5-(5-(6,7-dihydro-5H-pyrrolo[3,4-b]pyridine-6-carbonyl)pyridin-2-yl)-1-isopropyl-7-methyl-N-(4-(methylcarbamoyl)benzyl)-4,5,6,7-tetrahydro-1H-pyrazolo[4,3-c]pyridine-3-carboxamide] |
| 1 | 9 | CCn1nc(C(=O)NCc2ccc(-c3nc(C)c[nH]3)cc2)c2c1[C@@H](C)CN(c1ncc(C(=O)N(C)C)cn1)C2 [Example 397, (S)-5-(5-(dimethylcarbamoyl)pyrimidin-2-yl)-1-ethyl-7-methyl-N-(4-(4-methyl-1H-imidazol-2-yl)benzyl)-4,5,6,7-tetrahydro-1H-pyrazolo[4,3-c]pyridine-3-carboxamide] |
| 0.3 | 7 | CCn1nc(C(=O)NCc2ccc(NC(=O)N3CCN(C)CC3)cc2)c2c1[C@@H](C)CN(c1ccc(C(=O)N(C)C)cc1)C2 [Example 398, (S)-5-(4-(dimethylcarbamoyl)phenyl)-1-ethyl-7-methyl-N-(4-(4-methylpiperazine-1-carboxamido)benzyl)-4,5,6,7-tetrahydro-1H-pyrazolo[4,3-c]pyridine-3-carboxamide] |
| 1040 | 2570 | CN(C)C(=O)Nc1ccc(CNC(=O)c2nn(C)c3c2CN(c2ccc(C(=O)N(C)C)cn2)C2(CC2)C3)cc1 [Example 400, 5′-(5-(dimethylcarbamoyl)pyridin-2-yl)-N-(4-(3,3-dimethylureido)benzyl)-1′-methyl-1′,4′,5′,7′-tetrahydrospiro[cyclopropane-1,6′-pyrazolo[4,3-c]pyridine]-3′-carboxamide] |
| 10 | 100 | COc1ccnc2c1CCN(C(=O)c1ccc(N3CCc4c(c(C(=O)NCc5ccc(NC(=O)N(C)C)cc5)nn4C(C)C)C3)nc1)C2 [Example 407, N-(4-(3,3-dimethylureido)benzyl)-1-isopropyl-5-(5-(4-methoxy-5,6,7,8-tetrahydro-1,7-naphthyridine-7-carbonyl)pyridin-2-yl)-4,5,6,7-tetrahydro-1H-pyrazolo[4,3-c]pyridine-3-carboxamide] |

From US20250320213A1, “Nitrogen-Containing Heterocyclic Compounds” (Pfizer Inc., priority 2024, published 2025)
